Consider eight compounds from US8927579B2, “Male contraceptive” (priority 2007, dated 2015).

Counter-ions that a name gives are not always drawn.

In test [1] the test system is longitudinal muscle of human vas deferens. Put plainly: New molecules against contractions to high K+ (120 mM), longitudinal muscle. To be noted: for IC50: Homo sapiens, contractions evoked by K+ (120 mM), preliminary data, mean, n=2-3, read-out: Functional inhibitory potencies (IC50 values), Longitudinal muscle; for relative effectiveness against longitudinal and circular muscle contractions: contractions evoked by high [K+]o; for Selectivity [(C/L)-1]: longitudinal muscle selectivity from IC50 values in circular and longitudinal muscle, K+ (120 mM). The text has this:
(§1) Human vas deferens specimens were obtained after elective vasectomies of healthy fertile men. College ethical approval and the consent of patients were obtained. The specimens were placed in ice-cold Krebs' medium, dissected-free of connective tissue/blood vessels and cut longitudinally into strips (longitudinal muscle preparations; 5-8 mm long & 1 mm wide) or transversely into rings (circular muscle preparations; ˜3 mm in length). The longitudinal and circular muscle preparations were then set up for tension recording (resting tension 5-7 mN) in a Perspex chamber superfused at 2 ml per min with Krebs' medium (36° C.) composed of (mM): NaCl, 118.8; NaHCO3, 25; KCl, 4.7; CaCl2.2H2O, 2.5; KH2PO4, 1.2; MgSO4.7H2O, 1.2; glucose, 11.1; ascorbic acid 0.1 and continuously gassed with 95% O2 and 5% CO2. Contractile responses were recorded via a Harvard type force-displacement transducer. The analog signals were digitised using CIO-Das 16/Jr data acquisition software (Amplicon Liveline, Brighton, UK) and re-plotted on a microcomputer.
(§2) Tissues were equilibrated for 180 min in Krebs' medium containing inhibitors of extraneuronal and neuronal reuptake of noradrenaline, oestradiol (1 μM) and desipramine (0.1 μM) respectively, inhibitors of catechol-O-methyltransferase and monoamine oxidase, tropolone (10 μM) and iproniazid (10 μM) respectively and the β-adrenoceptor blocker, propranolol (1 μM). At the end of the equilibration period, the tissues were stimulated with noradrenaline (100 μM). […] After 40-45 min in this medium the tissues were stimulated with high [K^+]O (120 mM, Initial response). This was followed by exposure to cumulative concentrations of the new molecules {NIBA(1)XC1, NIBA(14)XN10, NIBA(6)XN3, NIBA(2)XC2, NIBA(53)XN16} or to Krebs' medium containing drug vehicles (time-matched controls). After contact times of 40-60 min at each drug concentration, the tissues were stimulated with high [K^+]o (120 mM). The resulting contractions were measured using computer software developed in-house to measure the total response (i.e. rhythmic activity plus tonic contraction). Contractions obtained in the presence of the new drug molecules were expressed as a percentage of the initial contraction evoked by high [K^+]o (120 mM) before exposure to the drugs.

Test [2] relates to circular muscle of human vas deferens. Description: New molecules against contractions to high K+ (120 mM), circular muscle. To be noted: contractions evoked by K+ (120 mM), preliminary data, mean, n=2-3, read-out: Functional inhibitory potencies (IC50 values), Circular muscle.
Source text: as §1, §2

Test [3] shares this test system. Description: Inhibition at fixed concentration of contractions evoked by high K+ in the presence of FPL 64176, circular muscle. To be noted: [K+]o 120 mM in the presence of FPL 64176; drug 1.0 μM.
Source text: as §1, with “5-10” for “5-8”, “3” for “˜3”, “Harvard-type” for “Harvard type”
(§3) Tissues were equilibrated for 180 min in Krebs' medium containing inhibitors of extraneuronal and neuronal reuptake of noradrenaline, oestradiol (1 μM) and desipramine (0.1 μM) respectively, inhibitors of catechol-O-methyltransferase and monoamine oxidase, tropolone (10 μM) and iproniazid (10 μM) respectively and the β-adrenoceptor blocker, propranolol (1 μM). At the end of the equilibration period, the tissues were stimulated with noradrenaline (100 μM). […] After a contact time of 30-40 min in this medium, different experimental protocols (described below) were adopted in order to • (a) Elucidate the contractile actions of L-type Ca^2+ agonists such as FPL 64176 or Bay K 8644. In these experiments, tissues were exposed to FPL 64176 (0.1-10 μM added cumulatively) or in separate experiments Bay K 8644 (0.1-10 μM added cumulatively). • (b) Investigate the effects of various diphenylalkylamines and conventional L-type Ca^2+ antagonists (methoxyverapamil or nifedipine) on contractions evoked by high concentrations of extracellular potassium (high [K^+]o) in the presence of L-type Ca^2+ agonists, FPL 64176 (1 μM) or Bay K 8644 (1 μM). In this protocol, tissues were stimulated with high [K^+]O (10, 30 and 120 mM at 10-15 min intervals) in normal Krebs' medium, then exposed to L-type Ca^2+ agonists for 20-30 min and subsequently stimulated with high [K^+]O (10, 30 and 120 mM) in the presence of the drugs. These provided the initial responses. Following this and in the continuous presence of the L-type Ca^2+ agonists, the tissues were exposed additionally to L-type Ca^2+ antagonists (conventional or diphenylalkylamines) or drug-free vehicle medium. After contact times of 25-50 min the tissues were stimulated, first with high [K^+]O (either 30 mM or 120 mM) in order to take account of the well-documented use-dependent action of the diphenylalkylamine Ca^2+ antagonists. Following recovery from the test contraction and after a further 30-40 min, the tissues were then stimulated with high [K^+]o (10, 30 and 120 mM). This protocol is illustrated in FIGS. 3 and 4. The resulting contractions were measured (see below) and expressed as a percentage of corresponding initial responses to high [K^+]o evoked in the presence of L-type Ca^2+ agonists (i.e. before exposure to L-type Ca^2+ antagonists). […]

For test [4] the test system is unchanged. Put plainly: IC50 against contractions evoked by high K+ (120 mM) in the presence of FPL 64176, circular muscle rings. As to conditions: contractions evoked by K+ (120 mM) in the presence of FPL 64176 (1 μM), means ± S.E.M.
Source text: as §1, with “5-10” for “5-8”, “3” for “˜3”, “Harvard-type” for “Harvard type”
(§4) Tissues were equilibrated for 180 min in Krebs' medium containing inhibitors of extraneuronal and neuronal reuptake of noradrenaline, oestradiol (1 μM) and desipramine (0.1 μM) respectively, inhibitors of catechol-O-methyltransferase and monoamine oxidase, tropolone (10 μM) and iproniazid (10 μM) respectively and the β-adrenoceptor blocker, propranolol (1 μM). At the end of the equilibration period, the tissues were stimulated with noradrenaline (100 μM). […] After a contact time of 30-40 min in this medium, different experimental protocols (described below) were adopted in order to • (a) Elucidate the contractile actions of L-type Ca^2+ agonists such as FPL 64176 or Bay K 8644. In these experiments, tissues were exposed to FPL 64176 (0.1-10 μM added cumulatively) or in separate experiments Bay K 8644 (0.1-10 μM added cumulatively). • (b) Investigate the effects of various diphenylalkylamines and conventional L-type Ca^2+ antagonists (methoxyverapamil or nifedipine) on contractions evoked by high concentrations of extracellular potassium (high [K^+]o) in the presence of L-type Ca^2+ agonists, FPL 64176 (1 μM) or Bay K 8644 (1 μM). In this protocol, tissues were stimulated with high [K^+]O (10, 30 and 120 mM at 10-15 min intervals) in normal Krebs' medium, then exposed to L-type Ca^2+ agonists for 20-30 min and subsequently stimulated with high [K^+]O (10, 30 and 120 mM) in the presence of the drugs. These provided the initial responses. Following this and in the continuous presence of the L-type Ca^2+ agonists, the tissues were exposed additionally to L-type Ca^2+ antagonists (conventional or diphenylalkylamines) or drug-free vehicle medium. After contact times of 25-50 min the tissues were stimulated, first with high [K^+]O (either 30 mM or 120 mM) in order to take account of the well-documented use-dependent action of the diphenylalkylamine Ca^2+ antagonists. Following recovery from the test contraction and after a further 30-40 min, the tissues were then stimulated with high [K^+]o (10, 30 and 120 mM). This protocol is illustrated in FIGS. 3 and 4. The resulting contractions were measured (see below) and expressed as a percentage of corresponding initial responses to high [K^+]o evoked in the presence of L-type Ca^2+ agonists (i.e. before exposure to L-type Ca^2+ antagonists). […] Subsequent analysis (see below) was between contractions of drug-treated tissues and time-matched controls • (c) Determine the inhibitory potencies (IC50 values) of various diphenylalkylamines and phenothiazines and conventional L-type Ca^2+ antagonists (nifedipine and methoxyverapamil) against contractions evoked in longitudinal and circular muscle of human vas deferens by high [K^+]o (120 mM) in the presence of FPL 64176. In these experiments, tissues were stimulated with high [K^+]o (120 mM); sequentially in normal Krebs' medium and after 25-30 min exposure to the L-type Ca^2+ agonist, FPL 64176, (1 μM, Initial response). […]

Test [5] concerns longitudinal muscle of human vas deferens. Put plainly: Inhibition at fixed concentration of contractions evoked by high K+ in the presence of FPL 64176, longitudinal muscle. As to conditions: [K+]o 120 mM in the presence of FPL 64176; drug 1.0 μM.
Source text: as §1, with “5-10” for “5-8”, “3” for “˜3”, “Harvard-type” for “Harvard type”
as §3, with “Following this and in the continuous presence of the L-type Ca^2+ agonists, the tissues were exposed additionally to L-type Ca^2+ antagonists (conventional or diphenylalkylamines) or drug-free vehicle medium. After contact times of 25-50 min the tissues were stimulated, first with high [K^+]O (either 30 mM or 120 mM) in order to take account of the well-documented use-dependent action of the diphenylalkylamine Ca^2+ antagonists. Following recovery from the test contraction and after a further 30-40 min, the tissues were then stimulated with high [K^+]o (10, 30 and 120 mM). This protocol is illustrated in FIGS. 3 and 4.” left out

Test [6] has the same test system. Put plainly: IC50 against contractions evoked by high K+ (120 mM) in the presence of FPL 64176, longitudinal muscle strips. As to conditions: contractions evoked by K+ (120 mM) in the presence of FPL 64176 (1 μM), means ± S.E.M.
Source text: as §1, with “5-10” for “5-8”, “3” for “˜3”, “Harvard-type” for “Harvard type”
as §4

In test [7] the test system is circular muscle of human vas deferens. Description: Contractile actions of L-type Ca2+ agonists, circular muscle. As to conditions: for contractions on second exposure to [K+]o, percentage of corresponding initial responses, circular muscle: [K+]o 30 mM & 120 mM in the continuous presence of agonist 1.0 μM; for response of circular muscle to higher concentration of L-type Ca2+ agonist: agonist 10 μM; for response of circular muscle to brief exposure to L-type Ca2+ agonist: agonist 0.1-3 μM.
Source text: as §1, with “5-10” for “5-8”, “3” for “˜3”, “Harvard-type” for “Harvard type”
as §4

Test [8] deals with longitudinal muscle of human vas deferens. Put plainly: Contractile actions of L-type Ca2+ agonists, longitudinal muscle. To be noted: for contractions on second exposure to [K+]o, percentage of corresponding initial responses, longitudinal muscle: [K+]o 30 mM & 120 mM in the continuous presence of agonist 1.0 μM; for response of longitudinal muscle to higher concentration of L-type Ca2+ agonist: agonist 10 μM; for response of longitudinal muscle to brief exposure to L-type Ca2+ agonist: agonist 0.1-3 μM.
Source text: as §1, with “5-10” for “5-8”, “3” for “˜3”, “Harvard-type” for “Harvard type”
as §4

For `CN1CCCCC1CNCCC(c1ccccc1)c1ccccc1` (stereo not drawn) [NIBA(1)XC1], in test [1], the IC50 (as a rule, the point on the concentration scale where inhibition reaches its midpoint) turned out to be 3.02 µM; the “relative effectiveness against longitudinal and circular muscle contractions” value is on record as “more effective against longitudinal than circular muscle contractions”; the “Selectivity [(C/L)-1]” value is given as 7.01. Besides, the IC50 in test [2] is 24.2 µM.

Consider (−)-methoxyverapamil hydrochloride, for which the “inhibition of circular muscle contractions” value in test [3] is recorded as 93-98%. Besides, the IC50 in test [4] amounted to 0.0181 ± 0.0038 µM; in test [6], 0.016 ± 0.0009 µM. In addition, the “inhibition of longitudinal muscle contractions” value in test [5] is 93-98%.

In the case of `CN1CCCCC1CCN1c2ccccc2Sc2ccc(S(C)(=O)=O)cc21` (stereo not drawn) [Sulphoridazine, sulphoridazine], the figures for the IC50 in test [4] and in test [6] were 14.1 ± 4.9 µM and 15.9 ± 2.9 µM, respectively.

On to `CN(C)CCCN1c2ccccc2Sc2ccc(Cl)cc21` [Chlorpromazine, chlorpromazine hydrochloride], for which the IC50 in test [4] (Homo sapiens) worked out at 18.3 ± 6 µM; in test [6] (Homo sapiens), 12.4 ± 2.9 µM.

Consider `CN1CCCCC1CCN(c1ccccc1)c1ccccc1` (stereo not drawn) [NIBA(6)XN3], for which, in test [1], the IC50 worked out at 6.25 µM; the “relative effectiveness against longitudinal and circular muscle contractions” value is on record as “more effective against longitudinal than circular muscle contractions”; the “Selectivity [(C/L)-1]” value is above 3.8. Besides, the IC50 in test [2] is above 30 µM.

Take `COC(=O)c1c(C)[nH]c(C)c1C(=O)c1ccccc1Cc1ccccc1` [FPL 64176, 2,5-dimethyl-4-[2-(phenylmethyl)benzoyl]-H-pyrrole-3-carboxylic acid methyl ester]: in test [7], the “contractions on second exposure to [K+]o, percentage of corresponding initial responses, circular muscle” value is recorded as 270-300%; the “response of circular muscle to higher concentration of L-type Ca2+ agonist” value was “rhythmic contractility”; the “response of circular muscle to brief exposure to L-type Ca2+ agonist” value was “quiescent”. In addition, in test [8], the “contractions on second exposure to [K+]o, percentage of corresponding initial responses, longitudinal muscle” value was 160-181%; the “response of longitudinal muscle to higher concentration of L-type Ca2+ agonist” value is given as “rhythmic contractility”; the “response of longitudinal muscle to brief exposure to L-type Ca2+ agonist” value is “quiescent”.

On to `COC(=O)C1=C(C)NC(C)=C([N+](=O)[O-])[C@H]1c1ccccc1C(F)(F)F` [Bay K 8644], for which, in test [7], the “contractions on second exposure to [K+]o, percentage of corresponding initial responses, circular muscle” value is listed as 86-92%; the “response of circular muscle to higher concentration of L-type Ca2+ agonist” value is recorded as “rhythmic contractility”; the “response of circular muscle to brief exposure to L-type Ca2+ agonist” value is “unresponsive”. For the same compound, in test [8], the “contractions on second exposure to [K+]o, percentage of corresponding initial responses, longitudinal muscle” value is given as around 92%; the “response of longitudinal muscle to higher concentration of L-type Ca2+ agonist” value is reported as “rhythmic contractility”; the “response of longitudinal muscle to brief exposure to L-type Ca2+ agonist” value is “unresponsive”.

For the compound `COCC(=O)O[C@]1(CCN(C)CCCc2nc3ccccc3[nH]2)CCc2cc(F)ccc2[C@@H]1C(C)C` [Mibefradil], the values for the IC50 in test [4] (Homo sapiens) and in test [6] (Homo sapiens) were 2.4 ± 0.9 µM and 1.1 ± 0.2 µM, respectively.
